Measurements published in patent US20250215397A1, “TWO-DIMENSIONAL CULTURE METHOD HAVING CLEAR CHEMICAL COMPOSITION FOR CULTURING THREE-DIMENSIONAL INTESTINAL ORGANOID-DERIVED INTESTINAL STEM CELL AGGREGATE” (KOREA RESEARCH INSTITUTE OF BIOSCIENCE AND BIOTECHNOLOGY, priority 2022, published 2025).
Counter-ions that a name gives are not always drawn.

Key:
Assay type in all cases: cell-based, human
[1] = system: two-dimensional intestinal stem cell population; experiment: Subculture of two-dimensional intestinal stem cells, engraftment / cell number; details: for need for long-term subculturing: factor removed from culture medium, subculture, FIG. 12; for subculture efficiency: added during subculture; for subculture efficiency / cell engraftment during subculture: FIG. 13; for cell engraftment during subculture: treatment during subculture
Protocol: (§1) The three-dimensional intestinal organoids were isolated from a Matrigel dome and the remaining three-dimensional intestinal organoids were removed as much as possible by pipetting. The separated organoids were placed in 1 ml of 0.25% trypsin-EDTA (TE, Invitrogen) and incubated at 37° C. a water bath for about 5 minutes. Then, pipetting was performed less than five times so that the organoids were allowed to be isolated into single cells and small clumps, and a basal medium was added so that the total volume thereof was 10 ml. The cells fed into a centrifuge were placed on culture dishes coated with feeder cells or 1% of Matrigel (Corning). Thereafter, 200 ng/ml of R-spondin 1 (R&D Systems), 100 ng/ml of EGF (R&D Systems), and 2.5 μM of Postaglandin E2 (Sigma-aldrich) were used as main components, cultured in an intestinal stem cell culture medium (2 mM of L-glutamine, 1% of Penicillin-Streptomycin, and 15 mM of HEPES buffer in Advanced DMEM F12) comprising, as an auxiliary component, one or more selected from the group consisting of 1×B27 (Invitrogen), 80 ng/ml of Noggin (R&D Systems), 10 nM of [Leu15]-Gastrin I (Sigma-aldrich), 100 ng/ml of human recombinant WNT3A (R&D Systems), 500 nM of A-83-01 (Tocris), 10 μM of SB202190 (Sigma-aldrich), 1 mM of N-acetylcysteine (Sigma-aldrich), and 10 mM of nicotinamide (Sigma-aldrich), and subcultured every 7 to 10 days. During the first 2 days of subculture, 1 μM of Jagged-1 (Anaspec) and/or 2.5 μM of Y-27632 (Tocirs) were added to the intestinal stem cell culture medium.
(§2) The two-dimensional intestinal stem cell population was plated on a culture dish coated with 1% of Matrigel and then cultured for 2 to 7 days. Thereafter, the culture medium was removed, and washing was performed 1 to 2 times with PBS (Sigma-aldrich), and TE (Invitrogen) was added thereto to detach the cells. After centrifugation, a medium was added to isolate the cells into single cells, and then the number of cells was measured using CountessIII cell counter (Thermo Scientific. Inc.).

[2] = system: two-dimensional intestinal stem cell population; experiment: Two-dimensional culture of intestinal stem cell population with removal of medium factors or inhibitor treatment; details: for role of essential culture medium factor (stemness, proliferation, death): presence or absence of each factor, FIGS. 7-10; for growth of the two-dimensional intestinal stem cell population: treatment with a WNT inhibitor, morphology, FIG. 8
Protocol: as §1
To measure viability of a two-dimensional intestinal stem cell population cultured in a culture dish coated with 1% of Matrigel, a kit (LIVE/DEAD Viability/Cytotoxicity Kit, Invitrogen) capable of distinguishing and staining surviving cells and dead cells was used. The surviving cells were stained with calcein-AM, and the dead cells were stained with ethidium homodimer-1. The stained cells were observed through a fluorescence microscope (Olympus).
as §2
The intestinal stem cell population was fixed with 4% of paraformaldehyde (PFA) and stained with 0.02% of crystal violet solution (Sigma-aldrich) at room temperature for 10 minutes. Thereafter, images were acquired after washing three times with sterile water. A colony size of the intestinal stem cell population was analyzed using Image J software (National Institute of Health).

[3] = system: two-dimensional intestinal stem cell population; experiment: Differentiation into 2.5-dimensional intestinal epithelial cells by air-liquid interface culture, medium factor screening; details: minimal medium composition; FIG. 24
Protocol: The intestinal stem cells grown to a density of 70 to 80% were washed 1-2 times with PBS, and then treated with TE in an incubator at 37° C. for 5 to 7 minutes. The intestinal stem cells isolated into single cells were collected and then diluted using the hIO medium. The cells were gathered by centrifugation, supernatant was removed, the intestinal stem cell culture medium was added thereto and sufficiently mixed, and then the number of cells was measured using Countess III cell counter (Thermo Scientific. Inc.). 2.5-3.5×10^5 cells were placed in an insert of 12-transwell plate (Corning) coated with 1% of Matrigel, and cultured in an incubator. After the cell density reached 100%, the culture medium of an upper layer was completely removed, and the culture medium of a lower layer was replaced with a differentiation medium (2 mM of L-glutamine, 1% of Penicillin-Streptomycin, and 15 mM of a HEPES buffer in Advanced DMEM F12) comprising 200 ng/ml of R-spondin 1 (R&D Systems), 100 ng/ml of EGF (R&D Systems), 2.5 µM of Prostaglandin E2 (Sigma-aldrich), 10 μM of SB202190 (Sigma-aldrich), and 10 mM of nicotinamide (Sigma-aldrich). Thereafter, once every 2 days, a surface of the upper layer was washed with the PBS or hIO medium, and the lower layer was replaced with a new differentiation medium and cultured for 8 to 12 days.

In the case of `Cc1cccc(-c2nn(C(=S)Nc3ccccc3)cc2-c2ccnc3ccccc23)n1` [A-83-01], the “need for long-term subculturing” value [1] is reported as “required to more efficiently perform long-term culturing”.

In the case of `CC(=O)N[C@@H](CS)C(=O)O` [N-acetylcysteine], the “need for long-term subculturing” value [1] is reported as “required to more efficiently perform long-term culturing”.

For `O=C(NOC[C@H](O)CO)c1ccc(F)c(F)c1Nc1ccc(I)cc1F` [PD0325901], the “cell proliferation of the two-dimensional intestinal stem cell population” value ([2]; EGF inhibitor treatment, morphology and live/dead assay, FIG. 9) was “cell proliferation is inhibited”.

For `CCCCC[C@H](O)/C=C/[C@H]1[C@H](O)CC(=O)[C@@H]1C/C=C\CCCC(=O)O` [PGE2, prostaglandin E2], the “role of essential culture medium factor (stemness, proliferation, death)” value [2] was “modulate the proliferation of the intestinal stem cell population” and the “effect on differentiation into intestinal epithelial cells” value [3] was “excellent effect on differentiation into intestinal epithelial cells”.

For `Oc1ccc(-c2nc(-c3ccncc3)c(-c3ccc(F)cc3)[nH]2)cc1` [SB202190], the “need for long-term subculturing” value [1] was “required to more efficiently perform long-term culturing” and the “effect on differentiation into intestinal epithelial cells” value [3] was “excellent effect on differentiation into intestinal epithelial cells”.

With `Cc1cc(-c2ccc(CC(=O)Nc3ccc(-c4cccnc4)cc3)cc2)ccn1` [WNT-C59] the “growth of the two-dimensional intestinal stem cell population” value [2] was “growth is inhibited”.

For `Oc1nc(-c2ccc(C(F)(F)F)cc2)nc2c1CSCC2` [XAV939], the “growth of the two-dimensional intestinal stem cell population” value [2] was “growth is inhibited”.

For `C[C@@H](N)[C@H]1CC[C@H](C(=O)Nc2ccncc2)CC1` [Y-27632, R-(+)-trans-4-(1-aminoethyl)-N-(4-pyridyl) cyclohexanecarboxamidedihydrochloridemonohydrate], the subculture efficiency [1] was “subculture efficiency is increased” and the “cell engraftment during subculture” value [1] was “cell engraftment increases”.

In the case of `NC(=O)c1cccnc1` [nicotinamide], the “need for long-term subculturing” value [1] is reported as “required to more efficiently perform long-term culturing” and the “effect on differentiation into intestinal epithelial cells” value [3] is reported as “excellent effect on differentiation into intestinal epithelial cells”.

For `CCCC(CCC)C(=O)O` [valproic acid], the subculture efficiency [1] was “subculture efficiency is increased” and the “cell engraftment during subculture” value [1] was “cell engraftment increases”.

“EGF: receptor tyrosine kinase ligand, epidermal growth factor (NSDSECPLSHDGYCLHDGVCMYIEALDKYACNCVVGYIGERCQYRDLKWWELR; Epidermal growth factor; UniProt P01133 971-1023, looked up)” was tested, and the “role of essential culture medium factor (stemness, proliferation, death)” value [2] was “prevent death of intestinal stem cell population and modulate proliferation” and the “effect on differentiation into intestinal epithelial cells” value [3] was “excellent effect on differentiation into intestinal epithelial cells”.

For Jagged-1: Notch activator, the subculture efficiency [1] was “subculture efficiency is increased” and the “cell engraftment during subculture” value [1] was “cell engraftment increases”.
